Patent publication US9421298B2, “Tissue adhesive based on nitrogen-modified aspartates” (Adhesys Medical GmbH, priority 2011, dated 2016)

Tested on: L929 cells
Experiment: Cytotoxicity in accordance with ISO 10993-5:2009 with L929 cells
Format: cell-based
Settings: prepolymer A cured with an equivalent amount of curing agent
Protocol: The prepolymer A was cured with an equivalent amount of 2. The cytotoxicity was measured in accordance with ISO 10993-5:2009 with L929 cells. […] The system can therefore not be classed as being cytotoxic.

SMILES: CCOC(=O)CC(NCCCCCCNCCCCCCNC(CC(=O)OCC)C(=O)OCC)C(=O)OCC (stereo not shown) [Curing agent 2, triethyl 4-oxo-3-oxa-7,14,21-triazatricosane-6,22,23-tricarboxylate]
- Cytotoxicity (cell viability): No reduction in cell viability
